The target in the test is IgE-Tb / sFcεRIα-Y131A-AF488 (Homo sapiens, UniProt P01854, N146Q/N252Q). In words: IgE-Tb / sFcεRIα-Y131A-AF488 FRET assay (protocol for examples 234 to 501). The format is binding. Conditions: examples 234 to 501: compound with IgE-Tb 30 minutes before sFcεRIα-Y131A-AF488, incubated 18 hours at room temperature; read-out: Y131A FRET IC50 range. In a few lines: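 Compounds (10-point 3-fold series, top usually 10 μM, 2% DMSO) preincubated 30 min with 5 nM IgE-Tb, then 25 nM sFcεRIα-Y131A-AF488 added; 18 h at room temperature in the dark. TR-FRET ratio 520/490 nm after 337 nm excitation, background-subtracted; IC50 by four-parameter logistic fit.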
IgE-Tb / sFcεRIα-Y131A-AF488, sequence (P01854 whole entry N146Q/N252Q): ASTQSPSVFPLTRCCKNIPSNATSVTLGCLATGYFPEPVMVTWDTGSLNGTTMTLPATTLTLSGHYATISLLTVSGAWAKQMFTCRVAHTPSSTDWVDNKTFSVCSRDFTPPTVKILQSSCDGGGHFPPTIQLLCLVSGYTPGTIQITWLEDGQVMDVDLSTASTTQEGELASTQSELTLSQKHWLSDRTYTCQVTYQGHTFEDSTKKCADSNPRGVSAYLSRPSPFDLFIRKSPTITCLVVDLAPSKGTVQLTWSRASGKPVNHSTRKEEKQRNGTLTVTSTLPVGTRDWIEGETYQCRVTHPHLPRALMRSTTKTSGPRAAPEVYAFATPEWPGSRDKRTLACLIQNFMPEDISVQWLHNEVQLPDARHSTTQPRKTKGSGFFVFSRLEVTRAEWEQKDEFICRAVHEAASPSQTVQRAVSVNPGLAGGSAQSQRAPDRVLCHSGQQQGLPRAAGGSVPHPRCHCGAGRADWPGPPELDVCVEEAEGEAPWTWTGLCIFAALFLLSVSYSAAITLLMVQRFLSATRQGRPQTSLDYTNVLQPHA
Regarding `O=C(NCC1CC1)c1c(NC(=O)C2CC2)sc2c1C[C@@H](n1cnnc1Nc1ccc(C(F)(F)F)nc1)CC2` [Example 427, (5S)-2-(cyclopropanecarbonylamino)-N-(cyclopropylmethyl)-5-[3-[[6-(trifluoromethyl)-3-pyridyl]amino]-1,2,4-triazol-4-yl]-4,5,6,7-tetrahydrobenzothiophene-3-carboxamide], the IC50 was under 1000 nM. In the case of `COc1ccc(Nc2nncn2[C@H]2CCc3sc(NC(=O)C4CC4)c(C(=O)NCC4CC4)c3C2)cn1` [Example 428, (5S)-2-(cyclopropanecarbonylamino)-N-(cyclopropylmethyl)-5-[3-[(6-methoxy-3-pyridyl)amino]-1,2,4-triazol-4-yl]-4,5,6,7-tetrahydrobenzothiophene-3-carboxamide], the IC50 was under 1000 nM. For `COc1cc(Nc2nncn2[C@H]2CCc3sc(NC(=O)C4CC4)c(C(=O)NCC4CC4)c3C2)ccn1` [Example 429, (5S)-2-(cyclopropanecarbonylamino)-N-(cyclopropylmethyl)-5-[3-[(2-methoxy-4-pyridyl)amino]-1,2,4-triazol-4-yl]-4,5,6,7-tetrahydrobenzothiophene-3-carboxamide], the IC50 is under 1000 nM.

Regarding `O=C(NCC1CC1)c1c(NC(=O)C2CC2)sc2c1C[C@@H](n1cnnc1Nc1ccc(Cl)nc1)CC2` [Example 430, (5S)-5-[3-[(6-chloro-3-pyridyl)amino]-1,2,4-triazol-4-yl]-2-(cyclopropanecarbonylamino)-N-(cyclopropylmethyl)-4,5,6,7-tetrahydrobenzothiophene-3-carboxamide], the IC50 was under 1000 nM. In the case of `O=C(NCC1CC1)c1c(NC(=O)C2CC2)sc2c1C[C@@H](n1cnnc1Nc1ccnc(Cl)c1)CC2` [Example 431, (5S)-5-[3-[(2-chloro-4-pyridyl)amino]-1,2,4-triazol-4-yl]-2-(cyclopropanecarbonylamino)-N-(cyclopropylmethyl)-4,5,6,7-tetrahydrobenzothiophene-3-carboxamide], the IC50 was under 1000 nM.

In the case of `COc1ccc(Nc2nncn2[C@H]2CCc3sc(NC(=O)C4CC4)c(C(=O)NCC4CC4)c3C2)c(C)n1` [Example 432, (5S)-2-(cyclopropanecarbonylamino)-N-(cyclopropylmethyl)-5-[3-[(6-methoxy-2-methyl-3-pyridyl)amino]-1,2,4-triazol-4-yl]-4,5,6,7-tetrahydrobenzothiophene-3-carboxamide], the IC50 was under 1000 nM. Then `O=C(NCC1CC1)c1c(NC(=O)C2CC2)sc2c1C[C@@H](Nc1nc3cccnc3s1)CC2` [Example 433], with under 1000 nM.

With `Cn1nncc1Nc1nncn1[C@H]1CCc2sc(NC(=O)C3CC3)c(C(=O)NCC3CC3)c2C1` [Example 434, (5S)-2-(cyclopropanecarbonylamino)-N-(cyclopropylmethyl)-5-[3-[(3-methyltriazol-4-yl)amino]-1,2,4-triazol-4-yl]-4,5,6,7-tetrahydrobenzothiophene-3-carboxamide], the IC50 was under 1000 nM. Regarding `C[C@H]1C[C@@H]1C(=O)Nc1sc2c(c1C(=O)NC[C@@H]1C[C@@H]1F)C[C@@H](n1cnnc1Nc1cc(C(F)F)nn1C)CC2` [Example 435, (5S)-5-[3-[[5-(difluoromethyl)-2-methylpyrazol-3-yl]amino]-1,2,4-triazol-4-yl]-N-[[(1S,2S)-2-fluorocyclopropyl]methyl]-2-[[(1S,2S)-2-methylcyclopropanecarbonyl]amino]-4,5,6,7-tetrahydro-1-benzothiophene-3-carboxamide], the IC50 is under 1000 nM. Regarding `C[C@H]1C[C@@H]1C(=O)Nc1sc2c(c1C(=O)NC[C@H]1C[C@@H]1F)C[C@@H](n1cnnc1Nc1cc(C(F)F)nn1C)CC2` [Example 436, (5S)-5-[3-[[5-(difluoromethyl)-2-methylpyrazol-3-yl]amino]-1,2,4-triazol-4-yl]-N-[[(1R,2S)-2-fluorocyclopropyl]methyl]-2-[[(1S,2S)-2-methylcyclopropanecarbonyl]amino]-4,5,6,7-tetrahydro-1-benzothiophene-3-carboxamide], the IC50 is under 1000 nM. Take `C[C@H]1C[C@@H]1C(=O)Nc1sc2c(c1C(=O)NC[C@H]1C[C@H](F)C1)C[C@@H](n1cnnc1Nc1cc(C(F)F)nn1C)CC2` [Example 437, (5S)-5-[3-[[5-(difluoromethyl)-2-methylpyrazol-3-yl]amino]-1,2,4-triazol-4-yl]-N-[trans-(3-fluorocyclobutyl)methyl]-2-[[(1S,2S)-2-methylcyclopropanecarbonyl]amino]-4,5,6,7-tetrahydro-1-benzothiophene-3-carboxamide]: the IC50 was under 1000 nM. As for `C[C@H]1C[C@@H]1C(=O)Nc1sc2c(c1C(=O)N[C@H]1C[C@H](F)C1)C[C@@H](n1cnnc1Nc1cc(C(F)F)nn1C)CC2` [Example 438, (5S)-5-[3-[[5-(difluoromethyl)-2-methylpyrazol-3-yl]amino]-1,2,4-triazol-4-yl]-N-(trans-3-fluorocyclobutyl)-2-[[(1S,2S)-2-methylcyclopropanecarbonyl]amino]-4,5,6,7-tetrahydro-1-benzothiophene-3-carboxamide], the IC50 is under 1000 nM. Regarding `C[C@H]1C[C@@H]1C(=O)Nc1sc2c(c1C(=O)NC1CC(F)(F)C1)C[C@@H](n1cnnc1Nc1cc(C(F)F)nn1C)CC2` [Example 439, (5S)—N-(3,3-difluorocyclobutyl)-5-[3-[[5-(difluoromethyl)-2-methylpyrazol-3-yl]amino]-1,2,4-triazol-4-yl]-2-[[(1S,2S)-2-methylcyclopropanecarbonyl]amino]-4,5,6,7-tetrahydro-1-benzothiophene-3-carboxamide], the IC50 is under 1000 nM. Then `C[C@H]1C[C@@H]1C(=O)Nc1sc2c(c1C(=O)NCC1CC(F)(F)C1)C[C@@H](n1cnnc1Nc1cc(C(F)F)nn1C)CC2` [Example 440, (5S)—N-[(3,3-difluorocyclobutyl)methyl]-5-[3-[[5-(difluoromethyl)-2-methylpyrazol-3-yl]amino]-1,2,4-triazol-4-yl]-2-[[(1S,2S)-2-methylcyclopropanecarbonyl]amino]-4,5,6,7-tetrahydro-1-benzothiophene-3-carboxamide], with under 1000 nM. For the compound `C[C@H]1C[C@@H]1C(=O)Nc1sc2c(c1C(=O)NCC1CC1(F)F)C[C@@H](n1cnnc1Nc1cc(C(F)F)nn1C)CC2` (stereo partly drawn) [Example 441, (5S)—N-[(2,2-difluorocyclopropyl)methyl]-5-[3-[[5-(difluoromethyl)-2-methylpyrazol-3-yl]amino]-1,2,4-triazol-4-yl]-2-[[(1S,2S)-2-methylcyclopropanecarbonyl]amino]-4,5,6,7-tetrahydro-1-benzothiophene-3-carboxamide], the IC50 is under 1000 nM. With `C[C@H]1C[C@@H]1C(=O)Nc1sc2c(c1C(=O)NC[C@H]1C[C@@H](F)C1)C[C@@H](n1cnnc1Nc1cc(C(F)F)nn1C)CC2` [Example 442, (5S)-5-[3-[[5-(difluoromethyl)-2-methylpyrazol-3-yl]amino]-1,2,4-triazol-4-yl]-N-[cis-(3-fluorocyclobutyl)methyl]-2-[[(1S,2S)-2-methylcyclopropanecarbonyl]amino]-4,5,6,7-tetrahydro-1-benzothiophene-3-carboxamide], the IC50 is under 1000 nM. On to `C[C@H]1C[C@@H]1C(=O)Nc1sc2c(c1C(=O)NC[C@H]1C[C@H]1F)C[C@@H](n1cnnc1Nc1cc(C(F)F)nn1C)CC2` [Example 443, (5S)-5-[3-[[5-(difluoromethyl)-2-methylpyrazol-3-yl]amino]-1,2,4-triazol-4-yl]-N-[[(1R,2R)-2-fluorocyclopropyl]methyl]-2-[[(1S,2S)-2-methylcyclopropanecarbonyl]amino]-4,5,6,7-tetrahydro-1-benzothiophene-3-carboxamide], for which the IC50 is under 1000 nM. As to `Cn1nc(OC(F)F)cc1Nc1nncn1[C@H]1CCc2sc(NC(=O)C3CC3)c(C(=O)NCC3CC34CC4)c2C1` (stereo partly drawn) [Example 444, (5S)-2-(cyclopropanecarbonylamino)-5-[3-[[5-(difluoromethoxy)-2-methylpyrazol-3-yl]amino]-1,2,4-triazol-4-yl]-N-(spiro[2.2]pentan-2-ylmethyl)-4,5,6,7-tetrahydro-1-benzothiophene-3-carboxamide], the IC50 is under 1000 nM. In the case of `Cn1nc(OC(F)F)cc1Nc1nncn1[C@H]1CCc2sc(NC(=O)C3CC3)c(C(=O)NCC3CCC3)c2C1` [Example 445, (5S)—N-(cyclobutylmethyl)-2-(cyclopropanecarbonylamino)-5-[3-[[5-(difluoromethoxy)-2-methylpyrazol-3-yl]amino]-1,2,4-triazol-4-yl]-4,5,6,7-tetrahydro-1-benzothiophene-3-carboxamide], the IC50 was under 1000 nM. In the case of `Cn1nc(OC(F)F)cc1Nc1nncn1[C@H]1CCc2sc(NC(=O)C3CC3)c(C(=O)NCC3CC(F)(F)C3)c2C1` [Example 446, (5S)-2-(cyclopropanecarbonylamino)-N-[(3,3-difluorocyclobutyl)methyl]-5-[3-[[5-(difluoromethoxy)-2-methylpyrazol-3-yl]amino]-1,2,4-triazol-4-yl]-4,5,6,7-tetrahydro-1-benzothiophene-3-carboxamide], the IC50 is under 1000 nM. With `Cn1nc(OC(F)F)cc1Nc1nncn1[C@H]1CCc2sc(NC(=O)C3CC3)c(C(=O)N[C@H]3C[C@@H](F)C3)c2C1` [Example 447, (5S)-2-(cyclopropanecarbonylamino)-5-[3-[[5-(difluoromethoxy)-2-methylpyrazol-3-yl]amino]-1,2,4-triazol-4-yl]-N-(cis-3-fluorocyclobutyl)-4,5,6,7-tetrahydro-1-benzothiophene-3-carboxamide], the IC50 was under 1000 nM. As to `CC1CC(NC(=O)c2c(NC(=O)C3CC3)sc3c2C[C@@H](n2cnnc2Nc2cc(OC(F)F)nn2C)CC3)C1` (stereo partly drawn) [Example 448, (5S)-2-(cyclopropanecarbonylamino)-5-[3-[[5-(difluoromethoxy)-2-methylpyrazol-3-yl]amino]-1,2,4-triazol-4-yl]-N-(3-methylcyclobutyl)-4,5,6,7-tetrahydro-1-benzothiophene-3-carboxamide], the IC50 is under 1000 nM.

For the origin of these results see patent US12018021B2 (UCB Biopharma SRL, priority 2018, dated 2024).
